Measurements: patent US9815851B2, “Pyrrolo carboxamides as modulators of orphan nuclear receptor RAR-related orphan receptor-gamma (RORγ, NR1F3) activity and for the treatment of chronic inflammatory and autoimmune diseases” (PHENEX PHARMACEUTICALS AG, priority 2011, dated 2017)
Read-outs that look alike come from different tables or passages of the source.

Experiments:
[1] = molecular target: T1, RORγ ligand binding domain (LBD) (Homo sapiens, UniProt P51449); assay: TR-FRET Activity Assay (ligand sensing, RORγ-LBD / coactivator peptide interaction, LANCE); type: biochemical
T1 construct: made in house; host or cells: E. coli BL-21 (BL3), vector pDEST15
T1 sequence (P51449 269-508 limits assumed): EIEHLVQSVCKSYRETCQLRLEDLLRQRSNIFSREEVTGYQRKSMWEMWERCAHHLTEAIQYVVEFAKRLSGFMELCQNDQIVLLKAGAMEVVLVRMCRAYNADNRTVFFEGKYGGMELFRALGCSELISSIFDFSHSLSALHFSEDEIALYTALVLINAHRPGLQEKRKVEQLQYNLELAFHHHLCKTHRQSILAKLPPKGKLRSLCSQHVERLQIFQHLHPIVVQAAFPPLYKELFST

RORγ = molecular target: T2, RORγ (UniProt P51449); assay: RORγ Gal4 Reporter Gene Assay in 293T cells (firefly and renilla luciferase); type: cell-based, human
T2 sequence (P51449 1-518): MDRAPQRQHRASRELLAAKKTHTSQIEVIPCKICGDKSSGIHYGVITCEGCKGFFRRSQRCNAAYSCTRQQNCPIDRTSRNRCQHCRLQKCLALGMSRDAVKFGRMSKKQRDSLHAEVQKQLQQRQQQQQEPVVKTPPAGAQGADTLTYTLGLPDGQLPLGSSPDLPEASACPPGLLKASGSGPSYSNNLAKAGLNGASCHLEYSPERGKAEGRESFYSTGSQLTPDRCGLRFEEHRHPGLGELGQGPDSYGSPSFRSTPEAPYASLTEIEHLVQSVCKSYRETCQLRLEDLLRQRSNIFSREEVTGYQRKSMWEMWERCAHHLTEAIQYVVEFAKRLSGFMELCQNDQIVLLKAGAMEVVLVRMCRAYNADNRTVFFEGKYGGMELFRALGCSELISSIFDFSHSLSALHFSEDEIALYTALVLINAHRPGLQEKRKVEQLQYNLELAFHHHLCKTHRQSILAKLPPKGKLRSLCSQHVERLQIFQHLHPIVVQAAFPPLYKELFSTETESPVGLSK

[2] = first value of the cell FRET/FF/REN, TR-FRET activity assay, read-out: pIC50 (FRET) (converted)
[3] = second value of the cell, Gal4 reporter gene assay in 293T cells, firefly luciferase
[4] = third value of the cell, Gal4 reporter gene assay in 293T cells, renilla normalised luciferase

SMILES	IC50 [1, 2] [nM]	pIC50 (FF) (RORγ; [3])	pIC50 (REN) (RORγ; [4])	IC50 [1] [nM]	pIC50 (FF) (RORγ)	pIC50 (REN) (RORγ)
CCN(C(C)(C)C)S(=O)(=O)c1ccc(-c2cc(C(=O)NC3CCOCC3)c(C)n2CC2CCCCC2)cc1C(F)(F)F [17/85]	–	–	–	> 20000	<4.7/7.4/7.5	<4.7/7.4/7.5
Cc1c(C(=O)NCC(C)(C)O)cc(-c2cc(C(C)(C)C)c3c(c2)C(C)(C)CO3)n1CC1CCCCC1 [17/86]	316	7.1	7.1	–	–	–
Cc1c(C(=O)NC2CCOCC2)cc(-c2ccc(S(=O)(=O)NC(C)(C)C)c(C(F)(F)F)c2)n1CC1CCCC(C(F)(F)F)C1 (stereo not drawn) [17/87]	–	–	–	501	6.3/6.9/6.9	6.3/6.9/6.9
Cc1c(C(=O)NC2CCNC(=O)C2)cc(-c2ccc(S(=O)(=O)NC(C)(C)C)c(C(C)(C)C)c2)n1CC1CCCCC1 (stereo not drawn) [17/89]	1580	6.9	6.9	–	–	–
Cc1c(C(=O)NCC2(C(N)=O)CCOCC2)cc(-c2ccc(S(=O)(=O)NC(C)(C)C)c(C(C)(C)C)c2)n1CC1CCCCC1 [17/90]	–	–	–	1580	5.8/7.9/8.0	5.8/7.9/8.0
Cc1c(C(=O)NC2CS(=O)(=O)C2)cc(-c2ccc(S(=O)(=O)NC(C)(C)C)c(C(C)(C)C)c2)n1CC1CCCCC1 [17/91]	–	–	–	631	6.2/7.1/7.0	6.2/7.1/7.0
Cc1c(C(=O)NC2CCS(=O)(=O)CC2)cc(-c2ccc(S(=O)(=O)NC(C)(C)C)c(C(C)(C)C)c2)n1CC1CCCCC1 [17/92]	–	–	–	1000	6.0/7.3/7.1	6.0/7.3/7.1
Cc1c(C(=O)N2CCC(C)(O)CC2)cc(-c2ccc(S(=O)(=O)NC(C)(C)C)c(C(C)(C)C)c2)n1CC1CCCCC1 [17/93]	1000	6.8	6.9	–	–	–
Cc1c(C(=O)NC2CCOCC2)cc(-c2ccc(S(=O)(=O)N3CCCC(C(F)(F)F)C3)c(C(C)(C)C)c2)n1CC1CCCCC1 (stereo not drawn) [17/102]	–	–	–	251	6.6/6.8/6.9	6.6/6.8/6.9
CC(=O)c1cc(-c2cc(C(=O)NC3CCOCC3)c(C)n2CC2CCCCC2)cc(C(C)(C)C)c1 [17/103]	–	–	–	794	6.1/6.7/6.8	6.1/6.7/6.8
Cc1c(C(=O)NC2CCOCC2)cc(-c2cc3c(c(C(C)(C)C)c2)OCCC3=O)n1CC1CCCCC1 [17/104]	501	6.5	6.7	–	–	–
Cc1c(C(=O)NC2CCOCC2)cc(-c2cc3c(c(C(C)(C)C)c2)OCCC3O)n1CC1CCCCC1 (stereo not drawn) [17/105]	2000	6.1	6.3	–	–	–
Cc1c(C(=O)NC2CCOCC2)cc(-c2ccc(S(=O)(=O)NC(C)(C)CCO)c(C(F)(F)F)c2)n1CC1CCCCC1 [17/108]	1000	6.9	7.1	–	–	–
COCC(C)(C)NS(=O)(=O)c1ccc(-c2cc(C(=O)NC3CCOCC3)c(C)n2CC2CCCCC2)cc1C(F)(F)F [17/109]	–	–	–	631	6.2/7.2/7.3	6.2/7.2/7.3
Cc1c(C(=O)NC2CCOCC2)cc(-c2ccc(S(=O)(=O)NC(C)C)c(C(F)(F)F)c2)n1CC1CCCCC1 [17/112]	316	7.4	7.5	–	–	–
Cc1c(C(=O)NC2CCOCC2)cc(-c2ccc(S(=O)(=O)NC(C)(C)C)c(C(F)F)c2)n1CC1CCCCC1 [17/115]	–	–	–	316	6.5/7.9/8.0	6.5/7.9/8.0
CC(C)(C)NS(=O)(=O)c1ccc(-c2cc(C(=O)NC3CCOCC3)cn2CC2CCCCC2)cc1C(C)(C)C [17/116]	–	7.3	7.3	631	–	–
CC(C)(C)NS(=O)(=O)c1ccc(-c2cc(C(=O)NC3CCOCC3)c(CO)n2CC2CCCCC2)cc1C(C)(C)C [17/117]	–	–	–	1000	6.0/7.6/7.7	6.0/7.6/7.7
COCC(=O)NC(C)(C)CNC(=O)c1cc(-c2cc(C(C)(C)C)cc(C3(C)CC3)c2)n(CC2CCCCC2)c1C [17/122]	–	–	–	398	6.4/7.6/7.5	6.4/7.6/7.5
Cc1c(C(=O)NCC(C)(C)NC(=O)C(C)O)cc(-c2cc(C(C)(C)C)c3c(c2)C2(CCO3)CC2)n1CC1CCCCC1 (stereo not drawn) [17/123]	–	–	–	3160	5.5/7.0/7.0	5.5/7.0/7.0
COCC(=O)NC(C)(C)CNC(=O)c1cc(-c2cc(C(C)(C)C)c3c(c2)C2(CCO3)CC2)n(CC2CCCCC2)c1C [17/124]	–	–	–	794	6.1/7.4/7.5	6.1/7.4/7.5
CCN(C(C)(C)C)S(=O)(=O)c1ccc(-c2cc(C(=O)NC3CCOCC3)c(C)n2CC2CCCCC2)cc1C(F)F [17/125]	–	–	–	79.4	7.1/6.4/6/	7.1/6.4/6/

More lines, main results first:

IC50 [1, 2] [nM]	pIC50 (FF) (RORγ; [3])	pIC50 (REN) (RORγ; [4])	SMILES	IC50 [1] [nM]	pIC50 (FF) (RORγ)	pIC50 (REN) (RORγ)
1260	6.8	6.7	Cc1c(C(=O)N2CC(O)C2)cc(-c2ccc(S(=O)(=O)NC(C)(C)C)c(C(C)(C)C)c2)n1CC1CCCCC1 [17/94]	–	–	–
631	7.8	7.7	Cc1c(C(=O)N(C)C2CCOCC2)cc(-c2ccc(S(=O)(=O)NC(C)(C)C)c(C(C)(C)C)c2)n1CC1CCCCC1 [17/95]	–	–	–
3160	6.9	7.0	Cc1c(C(=O)NC2CCOCC2)cc(-c2cc(S(=O)(=O)N3CCCCC3)c3ccccn23)n1CC1CCCCC1 [17/96]	–	–	–
126	8.0	8.0	Cc1c(C(=O)NC2CCOCC2)cc(-c2ccc(S(=O)(=O)NC(C)(C)C)c(C(F)(F)F)c2)n1CC1CCCCC1 [17/97]	–	–	–
316	6.8	6.9	CCNC(=O)c1cc(-c2ccc(S(=O)(=O)NC(C)(C)C)c(C(C)(C)C)c2)n(CC2CCCCC2)c1C [17/98]	–	–	–
251	6.9	7.0	Cc1c(C(=O)NC2CC2)cc(-c2ccc(S(=O)(=O)NC(C)(C)C)c(C(C)(C)C)c2)n1CC1CCCCC1 [17/99]	–	–	–
794	7.7	7.7	Cc1c(C(=O)NC2CCOCC2)cc(-c2ccc(S(=O)(=O)NCC(F)(F)F)c(C(C)(C)C)c2)n1CC1CCCCC1 [17/101]	–	–	–
501	7.3	7.3	Cc1c(C(=O)NC2CCOCC2)cc(-c2ccc(S(=O)(=O)NC(C)(C)C)c(OC(F)F)c2)n1CC1CCCCC1 [17/106]	–	–	–
1000	6.9	6.9	Cc1c(C(=O)NC2CCOCC2)cc(-c2ccc(S(=O)(=O)NC(C)(C)CO)c(C(F)(F)F)c2)n1CC1CCCCC1 [17/107]	–	–	–
2000	6.3	6.5	CNS(=O)(=O)c1ccc(-c2cc(C(=O)NC3CCOCC3)c(C)n2CC2CCCCC2)cc1C(F)(F)F [17/110]	–	–	–
316	7.2	7.3	CCCNS(=O)(=O)c1ccc(-c2cc(C(=O)NC3CCOCC3)c(C)n2CC2CCCCC2)cc1C(F)(F)F [17/111]	–	–	–
501	6.8	6.8	Cc1c(C(=O)NC2CCOCC2)cc(-c2cc(Cl)c(S(=O)(=O)NC(C)(C)C)c(C(F)(F)F)c2)n1CC1CCCCC1 [17/113]	–	–	–
631	6.5	6.4	Cc1c(C(=O)NCCCCCS(N)(=O)=O)cc(-c2cc(C(C)(C)C)c3c(c2)C2(CCO3)CC2)n1CC1CCCCC1 [17/114]	–	–	–
10000	6.3	6.5	CC(C)(C)NS(=O)(=O)c1ccc(-c2cc(C(=O)NC3CCOCC3)c(CF)n2CC2CCCCC2)cc1C(C)(C)C [17/118]	–	–	–
501	7.6	7.7	CC(C)(C)NS(=O)(=O)c1ccc(-c2cc(C(=O)NC3CCOCC3)c(Cl)n2CC2CCCCC2)cc1C(C)(C)C [17/119]	–	–	–
2510	6.1	6.0	CCNC(=O)NC(C)(C)CNC(=O)c1cc(-c2cc(C(C)(C)C)c3c(c2)C2(CCO3)CC2)n(CC2CCCCC2)c1C [17/120]	–	–	–
316	7.6	7.7	Cc1c(C(=O)NCC(C)(C)NC(=O)C(C)O)cc(-c2cc(C(C)(C)C)cc(C3(C)CC3)c2)n1CC1CCCCC1 (stereo not drawn) [17/121]	–	–	–
316	6.7	6.9	Cc1c(C(=O)NC2CCOCC2)cc(-c2ccc(S(=O)(=O)NC(C)(C)C)c(C(F)F)c2)n1CC1CCC1 [17/126]	–	–	–
316	7.1	7.2	Cc1c(C(=O)NCC(C)(C)C(=O)O)cc(-c2ccc(S(=O)(=O)NC(C)(C)C)c(C(F)F)c2)n1CC1CCCCC1 [17/127]	–	–	–
